Values quoted from earlier work, collected in patent US20190219580A1, “METHODS OF DRUG THERAPY SELECTION FOR BREAST CANCER PATIENTS BASED ON HER2 AND HER3 PATHWAY SUBTYPING” (Nestec S.A., priority 2016, published 2019).
Read-outs that look alike come from different tables or passages of the source.

Legend:
[1] = system: progressive, locally advanced, or metastatic HER2-positive breast cancer; settings: human, in vivo
[2] = system: HER2-positive metastatic and locally advanced breast cancer; settings: first-line therapy
[3] = system: HER2-positive breast cancer
[4] = system: HER2-positive, locally advanced disease without previous treatment
breast cancer = settings: monotherapy
[5] = system: tumor xenografts which overexpress HER2; settings: in vivo
[6] = trastuzumab-refractory patients

SMILES | median TTP [1] [months] | overall response rate [2] [%] | toxicity in the run-in phase ([3]; with EC-DOC) | pCR rate (no invasive disease in breast) ([3]; with epirubicin, cyclophosphamide followed by docetaxel (EC-DOC), n=620) [%] | pCR rate ([4]; patients with low PTEN expression and PI3 kinase mutation) [%] | pCR rate ([4]; single agent first, followed by trastuzumab/docetaxel ×4 cycles) [%] | response rate (breast cancer; trastuzumab-naive patients) [%] | response rate (breast cancer; [6]) [%] | phosphorylation of MAPK and AKT signal transduction pathways (BT474 cell lines) | tumor growth [5]
CCCCCOC(=O)Nc1nc(=O)n([C@@H]2O[C@H](C)[C@@H](O)[C@H]2O)cc1F [capecitabine] | 4.4 |  |  |  |  |  |  |  |  | 
CS(=O)(=O)CCNCc1ccc(-c2ccc3ncnc(Nc4ccc(OCc5cccc(F)c5)c(Cl)c4)c3c2)o1 [lapatinib] |  | 24 | lowered due to toxicity | 35 | 87 | 68 | 24 | 5.1 |  | 
CCOc1cc2ncc(C#N)c(Nc3ccc(OCc4ccccn4)c(Cl)c3)c2cc1NC(=O)/C=C/CN(C)C [neratinib] |  |  |  |  |  |  | 56 | 26 | effectively repressed | repress tumor growth in a dose-dependent manner
